Source: PubChem BioAssay (NCI)
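Values below derive from 48-hour exposures of cells grown in 96-well plates, with endpoints linearly interpolated between the two concentrations bracketing the appropriate inhibition level. Definition used: TGI = concentration required for complete inhibition of growth.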

Legend:
Test in all cases: NCI tumour cell line growth inhibition, 48 h
786-0 renal = tested on: 786-0 renal
A498 renal = tested on: A498 renal
A549 NSCLC = tested on: A549 NSCLC
ACHN renal = tested on: ACHN renal
BT-549 breast = tested on: BT-549 breast
CAKI-1 renal = tested on: CAKI-1 renal
CCRF-CEM leukemia = tested on: CCRF-CEM leukemia
COLO 205 colon = tested on: COLO 205 colon
DLD-1 colon = tested on: DLD-1 colon
DMS 114 small cell lung = tested on: DMS 114 small cell lung
DMS 273 small cell lung = tested on: DMS 273 small cell lung
EKVX NSCLC = tested on: EKVX NSCLC
HCC-2998 colon = tested on: HCC-2998 colon
HCT-116 colon = tested on: HCT-116 colon
HCT-15 colon = tested on: HCT-15 colon
HL-60(TB) leukemia = tested on: HL-60(TB) leukemia
HOP-18 NSCLC = tested on: HOP-18 NSCLC
HOP-62 NSCLC = tested on: HOP-62 NSCLC
HOP-92 NSCLC = tested on: HOP-92 NSCLC
HT29 colon = tested on: HT29 colon
IGROV1 ovarian = tested on: IGROV1 ovarian
K-562 leukemia = tested on: K-562 leukemia
KM12 colon = tested on: KM12 colon
KM20L2 colon = tested on: KM20L2 colon
LOX IMVI melanoma = tested on: LOX IMVI melanoma
M19-MEL melanoma = tested on: M19-MEL melanoma
MALME-3M melanoma = tested on: MALME-3M melanoma
MCF7 breast = tested on: MCF7 breast
MDA-MB-231 breast = tested on: MDA-MB-231 breast
MOLT-4 leukemia = tested on: MOLT-4 leukemia
NCI-H226 lung = tested on: NCI-H226 lung
NCI-H23 lung = tested on: NCI-H23 lung
NCI-H460 lung = tested on: NCI-H460 lung
NCI-H522 lung = tested on: NCI-H522 lung
NCI/ADR-RES ovarian = tested on: NCI/ADR-RES ovarian
OVCAR-3 ovarian = tested on: OVCAR-3 ovarian
OVCAR-4 ovarian = tested on: OVCAR-4 ovarian
OVCAR-5 ovarian = tested on: OVCAR-5 ovarian
OVCAR-8 ovarian = tested on: OVCAR-8 ovarian
P388 leukemia = tested on: P388 leukemia
P388/ADR leukemia = tested on: P388/ADR leukemia
RPMI-8226 leukemia = tested on: RPMI-8226 leukemia
RXF 393 renal = tested on: RXF 393 renal
SF-268 CNS = tested on: SF-268 CNS
SF-295 CNS = tested on: SF-295 CNS
SF-539 CNS = tested on: SF-539 CNS
SK-MEL-2 melanoma = tested on: SK-MEL-2 melanoma
SK-MEL-28 melanoma = tested on: SK-MEL-28 melanoma
SK-MEL-5 melanoma = tested on: SK-MEL-5 melanoma
SK-OV-3 ovarian = tested on: SK-OV-3 ovarian
SN12C renal = tested on: SN12C renal
SN12K1 renal = tested on: SN12K1 renal
SNB-19 CNS = tested on: SNB-19 CNS
SNB-75 CNS = tested on: SNB-75 CNS
SNB-78 CNS = tested on: SNB-78 CNS
SR leukemia = tested on: SR leukemia
SW-620 colon = tested on: SW-620 colon
U251 CNS = tested on: U251 CNS
UACC-257 melanoma = tested on: UACC-257 melanoma
UACC-62 melanoma = tested on: UACC-62 melanoma
UO-31 renal = tested on: UO-31 renal
XF 498 CNS = tested on: XF 498 CNS

## CCCCCCCCCCCCCCCCCCOP(=O)([O-])OCC[N+](C)(C)C
786-0 renal
  TGI: 0.169 µM
A498 renal
  TGI: > 46.4 µM
A549 NSCLC
  TGI: 5.13 µM
ACHN renal
  TGI: 0.37 µM
BT-549 breast
  TGI: 5.82 µM
CAKI-1 renal
  TGI: 22.8 µM
CCRF-CEM leukemia
  TGI: 2.52 µM
COLO 205 colon
  TGI: 0.5 µM
DLD-1 colon
  TGI: 16.9 µM
DMS 114 small cell lung
  TGI: 26.8 µM
DMS 273 small cell lung
  TGI: 13.4 µM
EKVX NSCLC
  TGI: 8.29 µM
HCC-2998 colon
  TGI: 7.01 µM
HCT-116 colon
  TGI: 3.12 µM
HCT-15 colon
  TGI: 3.24 µM
HL-60(TB) leukemia
  TGI: 5.83 µM
HOP-18 NSCLC
  TGI: 30.1 µM
HOP-62 NSCLC
  TGI: 1.38 µM
HOP-92 NSCLC
  TGI: 1.07 µM
HT29 colon
  TGI: 2.2 µM
IGROV1 ovarian
  TGI: 26.1 µM
K-562 leukemia
  TGI: 10.4 µM
KM12 colon
  TGI: 0.632 µM
KM20L2 colon
  TGI: 12.5 µM
LOX IMVI melanoma
  TGI: 1.96 µM
M19-MEL melanoma
  TGI: 16.3 µM
MALME-3M melanoma
  TGI: 3.38 µM
MCF7 breast
  TGI: 3.11 µM
MDA-MB-231 breast
  TGI: 3.5 µM
MOLT-4 leukemia
  TGI: 5.89 µM
NCI-H226 lung
  TGI: 3.31 µM
NCI-H23 lung
  TGI: 30.4 µM
NCI-H460 lung
  TGI: 1.94 µM
NCI-H522 lung
  TGI: 1.46 µM
NCI/ADR-RES ovarian
  TGI: 5.22 µM
OVCAR-3 ovarian
  TGI: 2.79 µM
OVCAR-4 ovarian
  TGI: 1.29 µM
OVCAR-5 ovarian
  TGI: 6.82 µM
OVCAR-8 ovarian
  TGI: 2.39 µM
P388 leukemia
  TGI: 15.1 µM
P388/ADR leukemia
  TGI: 27.3 µM
RPMI-8226 leukemia
  TGI: 2.64 µM
RXF 393 renal
  TGI: 23.1 µM
SF-268 CNS
  TGI: 2.21 µM
SF-295 CNS
  TGI: 3.49 µM
SF-539 CNS
  TGI: 2.59 µM
SK-MEL-2 melanoma
  TGI: 3.11 µM
SK-MEL-28 melanoma
  TGI: 42.2 µM
SK-MEL-5 melanoma
  TGI: 17.5 µM
SK-OV-3 ovarian
  TGI: 43.4 µM
SN12C renal
  TGI: 1.53 µM
SN12K1 renal
  TGI: 26.9 µM
SNB-19 CNS
  TGI: 47.9 µM
SNB-75 CNS
  TGI: 1.7 µM
SNB-78 CNS
  TGI: 15.8 µM
SR leukemia
  TGI: > 100 µM
SW-620 colon
  TGI: 6.66 µM
U251 CNS
  TGI: 4.71 µM
UACC-257 melanoma
  TGI: 25.6 µM
UACC-62 melanoma
  TGI: 20.8 µM
UO-31 renal
  TGI: 36.1 µM
XF 498 CNS
  TGI: 25.4 µM

## COc1ccc(OC)c(C#N)c1C#N (tested in a mixture with another compound)
A498 renal
  TGI: > 100 µM
A549 NSCLC
  TGI: > 100 µM
CAKI-1 renal
  TGI: > 100 µM
CCRF-CEM leukemia
  TGI: > 100 µM
COLO 205 colon
  TGI: > 100 µM
DLD-1 colon
  TGI: > 100 µM
DMS 273 small cell lung
  TGI: > 100 µM
EKVX NSCLC
  TGI: > 88 µM
HCC-2998 colon
  TGI: > 100 µM
HCT-116 colon
  TGI: > 100 µM
HCT-15 colon
  TGI: > 100 µM
HL-60(TB) leukemia
  TGI: > 100 µM
HOP-62 NSCLC
  TGI: > 100 µM
HOP-92 NSCLC
  TGI: > 100 µM
HT29 colon
  TGI: > 100 µM
IGROV1 ovarian
  TGI: > 100 µM
K-562 leukemia
  TGI: > 100 µM
KM12 colon
  TGI: > 100 µM
KM20L2 colon
  TGI: > 100 µM
LOX IMVI melanoma
  TGI: > 100 µM
M19-MEL melanoma
  TGI: > 100 µM
MALME-3M melanoma
  TGI: > 100 µM
MCF7 breast
  TGI: > 100 µM
MOLT-4 leukemia
  TGI: > 100 µM
NCI-H226 lung
  TGI: > 100 µM
NCI-H23 lung
  TGI: > 100 µM
NCI-H460 lung
  TGI: > 100 µM
NCI/ADR-RES ovarian
  TGI: > 100 µM
OVCAR-3 ovarian
  TGI: > 100 µM
OVCAR-4 ovarian
  TGI: > 100 µM
OVCAR-5 ovarian
  TGI: > 100 µM
OVCAR-8 ovarian
  TGI: > 100 µM
P388 leukemia
  TGI: > 100 µM
P388/ADR leukemia
  TGI: > 100 µM
RPMI-8226 leukemia
  TGI: > 100 µM
RXF 393 renal
  TGI: > 100 µM
SF-268 CNS
  TGI: > 100 µM
SF-295 CNS
  TGI: > 100 µM
SF-539 CNS
  TGI: > 100 µM
SK-MEL-2 melanoma
  TGI: > 100 µM
SK-MEL-28 melanoma
  TGI: > 100 µM
SK-MEL-5 melanoma
  TGI: > 100 µM
SK-OV-3 ovarian
  TGI: > 100 µM
SN12C renal
  TGI: > 100 µM
SN12K1 renal
  TGI: > 100 µM
SNB-19 CNS
  TGI: > 100 µM
SNB-75 CNS
  TGI: > 100 µM
SNB-78 CNS
  TGI: > 100 µM
SW-620 colon
  TGI: > 100 µM
U251 CNS
  TGI: > 100 µM
UACC-257 melanoma
  TGI: > 100 µM
UACC-62 melanoma
  TGI: > 100 µM
UO-31 renal
  TGI: > 100 µM
XF 498 CNS
  TGI: > 100 µM
